In patent US10131652B2, “Pyrimidinyloxy benzene derivatives as herbicides” (E. I. DU PONT DE NEMOURS AND COMPANY, priority 2014, dated 2018):

Columns and labels:
Assay type in all cases: in vivo
[1] = test system: ragweed (common ragweed, Ambrosia elatior); assay: Test B pre-/postemergence plant response
Outline: (§1)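 Seeds in loam–sand blend given preemergence soil spray; separately, plants at one- to two-leaf stage (2–10 cm) sprayed postemergence, compounds in non-phytotoxic solvent with surfactant. Injury rated visually versus untreated controls after ~10 days in greenhouse, 0 (no effect) to 100 (complete control).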

[2] = test system: Italian ryegrass (Lolium multiflorum); assay: Test B pre-/postemergence plant response
Outline: as §1

kochia (Kochia scoparia) = assay: Test B pre-/postemergence plant response
Outline: as §1

[3] = test system: ragweed (common ragweed, Ambrosia elatior); assay: Test D pre-/postemergence plant response; conditions: Postemergence; for Ragweed plant response rating: scale 0 to 100 (0 no effect, 100 complete control); for Plant response rating, Ragweed: scale 0 to 100, 0 no effect, 100 complete control
Outline: (§2)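 Plants are held in a greenhouse 13 to 15 days after spraying, then injury is rated by eye relative to controls on a 0 to 100 scale. Treatments are preemergence on freshly sown loam/sand pots or postemergence at 1- to 4-leaf stage in peat-based medium; surfactant-containing solvent formulation.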

[4] = test system: giant foxtail (Setaria faberii); assay: Test D pre-/postemergence plant response; conditions: Postemergence; for Foxtail, Giant plant response rating: scale 0 to 100 (0 no effect, 100 complete control); for Plant response rating, Foxtail, Giant: scale 0 to 100, 0 no effect, 100 complete control
Outline: as §2

[5] = test system: oilseed rape (Brassica napus); assay: Test D pre-/postemergence plant response; conditions: Postemergence; for Oilseed Rape plant response rating: scale 0 to 100 (0 no effect, 100 complete control); for Plant response rating, Oilseed Rape: scale 0 to 100, 0 no effect, 100 complete control
Outline: as §2

[6] = test system: barnyardgrass (Echinochloa crus-galli); assay: Test D pre-/postemergence plant response; conditions: Postemergence; for Barnyardgrass plant response rating: scale 0 to 100 (0 no effect, 100 complete control); for Plant response rating, Barnyardgrass: scale 0 to 100, 0 no effect, 100 complete control
Outline: as §2

[7] = test system: Italian ryegrass (Lolium multiflorum); assay: Test D pre-/postemergence plant response; conditions: Postemergence; for Ryegrass, Italian plant response rating: scale 0 to 100 (0 no effect, 100 complete control); for Plant response rating, Ryegrass, Italian: scale 0 to 100, 0 no effect, 100 complete control
Outline: as §2

[8] = test system: galium (catchweed bedstraw, Galium aparine); assay: Test D pre-/postemergence plant response; conditions: Postemergence; for Galium plant response rating: scale 0 to 100 (0 no effect, 100 complete control); for Plant response rating, Galium: scale 0 to 100, 0 no effect, 100 complete control
Outline: as §2

[9] = test system: blackgrass (Alopecurus myosuroides); assay: Test D pre-/postemergence plant response; conditions: Postemergence; for Blackgrass plant response rating: scale 0 to 100 (0 no effect, 100 complete control); for Plant response rating, Blackgrass: scale 0 to 100, 0 no effect, 100 complete control
Outline: as §2

corn (Zea mays) = assay: Test D pre-/postemergence plant response; conditions: Postemergence; for Corn plant response rating: scale 0 to 100 (0 no effect, 100 complete control); for Plant response rating, Corn: scale 0 to 100, 0 no effect, 100 complete control
Outline: as §2

[10] = test system: large (Lg) crabgrass (Digitaria sanguinalis); assay: Test D pre-/postemergence plant response; conditions: Postemergence; for Crabgrass, Large plant response rating: scale 0 to 100 (0 no effect, 100 complete control); for Plant response rating, Crabgrass, Large: scale 0 to 100, 0 no effect, 100 complete control
Outline: as §2

[11] = test system: pigweed (Amaranthus retroflexus); assay: Test D pre-/postemergence plant response; conditions: Postemergence; for Pigweed plant response rating: scale 0 to 100 (0 no effect, 100 complete control); for Plant response rating, Pigweed: scale 0 to 100, 0 no effect, 100 complete control
Outline: as §2

[12] = 125 g ai/ha, postemergence, 0 to 100 scale, 0 no effect, 100 complete control
[13] = Postemergence, 500 g ai/ha, 0 to 100 scale (0 no effect, 100 complete control)
[14] = Preemergence, 125 g ai/ha, 0 to 100 scale where 0 is no effect and 100 is complete control
[15] = Preemergence, 500 g ai/ha, 0 to 100 scale where 0 is no effect and 100 is complete control

For `Cn1nnc(-c2ccccc2Oc2ncc(Br)cn2)n1` [Compound 50], the “Plant response rating, Ragweed” value [1, 12] was 20, the “Plant response rating, Ragweed” value [1, 13] was 60 and the “Plant response rating, Ragweed” value [1, 14] was 0. The “Plant response rating, Ragweed” value [1, 15] was 50, the “Plant response rating, Ryegrass, Italian” value [2, 12] was 0 and the “Plant response rating, Ryegrass, Italian” value [2, 13] was 50. The “Plant response rating, Ryegrass, Italian” value [2, 14] was 20, the “Plant response rating, Ryegrass, Italian” value [2, 15] was 50 and the “Plant response rating, Kochia” value (kochia (Kochia scoparia); [12]) was 60. The “Plant response rating, Kochia” value (kochia (Kochia scoparia); [13]) was 80, the “Plant response rating, Kochia” value (kochia (Kochia scoparia); [14]) was 10 and the “Plant response rating, Kochia” value (kochia (Kochia scoparia); [15]) was 60. For the same compound, the “Ragweed plant response rating” value ([3]; 16 g ai/ha) was 5, the “Ragweed plant response rating” value ([3]; 31 g ai/ha) was 5 and the “Plant response rating, Ragweed” value ([3]; 62 g ai/ha) was 5. For the same compound, the “Plant response rating, Ragweed” value ([3]; 125 g ai/ha) was 15, the “Foxtail, Giant plant response rating” value ([4]; 16 g ai/ha) was 0 and the “Foxtail, Giant plant response rating” value ([4]; 31 g ai/ha) was 0. For the same compound, the “Plant response rating, Foxtail, Giant” value ([4]; 62 g ai/ha) was 5, the “Plant response rating, Foxtail, Giant” value ([4]; 125 g ai/ha) was 35 and the “Oilseed Rape plant response rating” value ([5]; 16 g ai/ha) was 5. For the same compound, the “Oilseed Rape plant response rating” value ([5]; 31 g ai/ha) was 5, the “Plant response rating, Oilseed Rape” value ([5]; 62 g ai/ha) was 10 and the “Plant response rating, Oilseed Rape” value ([5]; 125 g ai/ha) was 30. For the same compound, the “Barnyardgrass plant response rating” value ([6]; 16 g ai/ha) was 0, the “Barnyardgrass plant response rating” value ([6]; 31 g ai/ha) was 0 and the “Plant response rating, Barnyardgrass” value ([6]; 62 g ai/ha) was 0. For the same compound, the “Plant response rating, Barnyardgrass” value ([6]; 125 g ai/ha) was 0, the “Ryegrass, Italian plant response rating” value ([7]; 16 g ai/ha) was 0 and the “Ryegrass, Italian plant response rating” value ([7]; 31 g ai/ha) was 0. The “Plant response rating, Ryegrass, Italian” value ([7]; 62 g ai/ha) was 0, the “Plant response rating, Ryegrass, Italian” value ([7]; 125 g ai/ha) was 0 and the “Galium plant response rating” value ([8]; 16 g ai/ha) was 30. The “Galium plant response rating” value ([8]; 31 g ai/ha) was 15, the “Plant response rating, Galium” value ([8]; 62 g ai/ha) was 5 and the “Plant response rating, Galium” value ([8]; 125 g ai/ha) was 60. The “Blackgrass plant response rating” value ([9]; 16 g ai/ha) was 0, the “Blackgrass plant response rating” value ([9]; 31 g ai/ha) was 0 and the “Plant response rating, Blackgrass” value ([9]; 62 g ai/ha) was 0. The “Plant response rating, Blackgrass” value ([9]; 125 g ai/ha) was 0, the “Corn plant response rating” value (corn (Zea mays); 16 g ai/ha) was 0 and the “Corn plant response rating” value (corn (Zea mays); 31 g ai/ha) was 0. The “Plant response rating, Corn” value (corn (Zea mays); 62 g ai/ha) was 0, the “Plant response rating, Corn” value (corn (Zea mays); 125 g ai/ha) was 5 and the “Crabgrass, Large plant response rating” value ([10]; 16 g ai/ha) was 0. The “Crabgrass, Large plant response rating” value ([10]; 31 g ai/ha) was 0, the “Plant response rating, Crabgrass, Large” value ([10]; 62 g ai/ha) was 0 and the “Plant response rating, Crabgrass, Large” value ([10]; 125 g ai/ha) was 5. The “Pigweed plant response rating” value ([11]; 16 g ai/ha) was 0, the “Pigweed plant response rating” value ([11]; 31 g ai/ha) was 5 and the “Plant response rating, Pigweed” value ([11]; 62 g ai/ha) was 5. The “Plant response rating, Pigweed” value ([11]; 125 g ai/ha) was 30.
